In patent publication US10294228B2, “Breathing control modulating compounds, and methods of making and using same” (NEURAD LTD., priority 2015, dated 2019):
“Also recorded” adds a separate entry of the source. Structures can show the parent of a compound that is named as a salt.

What was measured:
[1] = test system: anesthetized rats; assay: Anesthetized rat spirometry screening assay (ventilatory activity, minute volume); assay type: in vivo; details: 0.3 mg/kg IV bolus, increase in minute volume (VE), read-out: VE % Inc @ 0.3 mg/kg IV
In short: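 Urethane-anesthetized (1.5 g/kg i.v.) rats with tracheal cannula to pneumotachometer; minute volume derived from respiratory rate × tidal volume. Compounds given as i.v. bolus at 0.1 and/or 0.3 and/or 3 mg/kg, monitored at least 6 min; data as 30 s averages.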

[2] = test system: rats; assay: Sleep quantity, architecture and quality by EEG/EMG telemetry; assay type: in vivo, rat; details: 10 mg/kg PO
Protocol: All surgical and plethysmographic studies were approved by the IACUC committee of Galleon Pharmaceuticals. The study used rats implanted with dual biopotential electrodes that permitted continuous and simultaneous telemetric recordings of electroencephalogram (EEG) and electromyogram (EMG) waveforms. Three treatment conditions were assessed for their effects on sleep quantity, architecture, and quality: baseline (drug-naïve), (31a) (10 mg/kg PO) and vehicle (equal volume PO). Baseline and (31a) treatment study days were randomized. However, vehicle alone was assessed after each rat had completed drug nave and compound (31a) evaluations.
Standard aseptic technique was used for all surgical procedures. […]
Rats with implanted telemeters were allowed to remain in their home cages during data collection. […] EEG and EMG waveforms were recorded between 8 am and 3 pm each study day. […] For each rat, the three telemetry signals (EEG, EMG, and temperature) were routed from the receiver to the PowerLab and recorded using LabChart. […]
The principal aspects of these analyses were to quantify the magnitude of the EMG signal (i.e., the animals activity level) and the relative densities of EEG delta waves (0.5 to 4 Hz; predominant in NREM sleep) and EEG theta waves (6 to 10 Hz; predominant in REM sleep) during each 4-second epoch. […]

For `CCCNc1nc(NC)nc2c(NCC(C)(C)O)nc(NC)nc12` [Compound 31a, 1-(2,6-Bis-methylamino-8-propylamino-pyrimido[5,4-d]pyrimidin-4-ylamino)-2-methyl-propan-2-ol Hydrochloride], the change in vivo at 0.3 mg/kg [1] was 69%, the “effects on sleep quantity, architecture, or quality” value [2] was “not associated with any statistically significant effects” and the “effects on sleep architecture” value ([2]; compared to baseline (drug-naive), FIG. 24, Hydrochloride, 10 mg/kg) was “No significant differences; also recorded: does not produce effects”.
